Counter-ions that a name gives are not always drawn.
Assays:
MCC13 cells (VN-MCC) = experiment: qHTS cell viability (CellTiter-Glo, 72 h; primary and follow-up small molecule screen); type: cell-based, human
NIH-3T3 cells = experiment: qHTS cell viability (CellTiter-Glo, 72 h; primary screen), control cell line; type: cell-based, mouse
[1] = system: control cell lines (HACAT, HEK293T, CRL-7250, NIH-3T3); experiment: qHTS cell viability, control cell lines as a group (mean AUC, Control.avg); type: cell-based; conditions: NPC library; mean AUC of control cell lines
[2] = system: VP-MCC cell lines (WAGA, MKL-1, MKL-2); experiment: qHTS cell viability, VP-MCC cell lines as a group (mean AUC, VP.MCC.avg); type: cell-based, human; conditions: for VP-MCC_Avg_AUC: mean AUC of VP-MCC cell lines
UISO cells (VN-MCC) = experiment: qHTS cell viability (CellTiter-Glo, 72 h; primary and follow-up small molecule screen); type: cell-based, human
HACAT cells = experiment: qHTS cell viability (CellTiter-Glo, 72 h; primary screen), control cell line; type: cell-based, human
MCC26 cells (VN-MCC) = experiment: qHTS cell viability (CellTiter-Glo, 72 h; primary and follow-up small molecule screen); type: cell-based, human
MKL-1 cells (VP-MCC) = experiment: as above; type: cell-based, human
[3] = system: VN-MCC cell lines (MCC13, MCC26, UISO); experiment: qHTS cell viability, VN-MCC cell lines as a group (mean AUC, VN.MCC.avg); type: cell-based, human; conditions: for VN-MCC_Avg_AUC: mean AUC of VN-MCC cell lines
[4] = system: MCC cell lines (WAGA, MKL-1, MKL-2, MCC13, MCC26, UISO); experiment: qHTS cell viability, all six MCC cell lines as a group (mean AUC, MCC.avg); type: cell-based, human; conditions: NPC library
CRL-7250 cells = experiment: qHTS cell viability (CellTiter-Glo, 72 h; primary screen), control cell line; type: cell-based
MKL-2 cells (VP-MCC) = experiment: qHTS cell viability (CellTiter-Glo, 72 h; primary and follow-up small molecule screen); type: cell-based, human
WAGA cells (VP-MCC) = experiment: as above; type: cell-based, human
HEK293T cells = experiment: qHTS cell viability (CellTiter-Glo, 72 h; primary screen), control cell line; type: cell-based, human
[5] = system: six MCC cell lines and four control cell lines; experiment: qHTS cell viability, all 10 cell lines screened; type: cell-based; conditions: NPC library; therapeutic window: Control avg AUC minus MCC avg AUC
[6] = NPC library, qHTS dose-response AUC, MCC13
[7] = NPC library, qHTS dose-response AUC, NIH3T3 control
[8] = NPC library, therapeutic window: Control avg AUC minus VP-MCC avg AUC
[9] = NPC library, qHTS dose-response AUC, UISO
[10] = NPC library, qHTS dose-response AUC, HACAT control
[11] = NPC library, qHTS dose-response AUC, MKL1
[12] = NPC library, therapeutic window: Control avg AUC minus VN-MCC avg AUC
[13] = NPC library, qHTS dose-response AUC, CRL7250 control
[14] = NPC library, qHTS dose-response AUC, MKL2
[15] = NPC library, qHTS dose-response AUC, WAGA

SMILES: CCN(CC)CCNC(=O)c1ccc(NC(C)=O)cc1 [Acecainide hydrochloride]
- MCC13_AUC (MCC13 cells (VN-MCC); [6]): 428.813
- MCC13_AUC (MCC13 cells (VN-MCC); area under the dose-response curve, MCC13 cells, AUC<450 = reduced viability): 428.813
- NIH3T3_AUC (NIH-3T3 cells; [7]): 480.581
- NIH3T3_AUC (NIH-3T3 cells; area under the dose-response curve, NIH3T3 control cells, AUC<450 = reduced viability): 480.581
- Control_Avg_AUC [1]: 478.381
- Control-VP-MCC ([2]; Control AUC minus VP-MCC AUC): 54.3246
- VP-MCC_Avg_AUC ([2]; NPC library): 424.056
- Control-VP-MCC [2, 8]: 54.3246
- UISO_AUC (UISO cells (VN-MCC); [9]): 444.571
- UISO_AUC (UISO cells (VN-MCC); area under the dose-response curve, UISO cells, AUC<450 = reduced viability): 444.571
- HACAT_AUC (HACAT cells; [10]): 489.271
- HACAT_AUC (HACAT cells; area under the dose-response curve, HACAT control cells, AUC<450 = reduced viability): 489.271
- MCC26_AUC (MCC26 cells (VN-MCC); NPC library, qHTS dose-response AUC, MCC26): 385.871
- MCC26_AUC (MCC26 cells (VN-MCC); area under the dose-response curve, MCC26 cells; AUC<450 = reduced viability): 385.871
- MKL1_AUC (MKL-1 cells (VP-MCC); [11]): 419.008
- MKL1_AUC (MKL-1 cells (VP-MCC); {}): 419.008
- Control-VN-MCC ([3]; Control AUC minus VN-MCC AUC): 58.6292
- VN-MCC_Avg_AUC ([3]; NPC library): 419.752
- Control-VN-MCC [3, 12]: 58.6293
- MCC_Avg_AUC ([4]; mean AUC of all 6 MCC cell lines): 421.904
- MCC_Avg_AUC ([4]; mean AUC of six MCC cell lines): 421.904
- CRL7250_AUC (CRL-7250 cells; [13]): 485.167
- CRL7250_AUC (CRL-7250 cells; area under the dose-response curve, CRL7250 control cells, AUC<450 = reduced viability): 485.167
- MKL2_AUC (MKL-2 cells (VP-MCC); [14]): 429.744
- MKL2_AUC (MKL-2 cells (VP-MCC); area under the dose-response curve, MKL-2 cells, AUC<450 = reduced viability): 429.744
- WAGA_AUC (WAGA cells (VP-MCC); [15]): 423.417
- WAGA_AUC (WAGA cells (VP-MCC); area under the dose-response curve, WAGA cells, AUC<450 = reduced viability): 423.417
- HEK293T_AUC (HEK293T cells; NPC library, qHTS dose-response AUC, HEK293T control): 458.505
- HEK293T_AUC (HEK293T cells; area under the dose-response curve, HEK293T control cells; AUC<450 = reduced viability): 458.505
- Control-MCC [5]: 56.4769

SMILES: CCCCC(CC)CNC(=N)NC(=N)NCCCCCCNC(=N)NC(=N)NCC(CC)CCCC (centres unmarked) [Alexidine dihydrochloride]
- MCC13_AUC (MCC13 cells (VN-MCC); [6]): 392.522
- NIH3T3_AUC (NIH-3T3 cells; [7]): 453.563
- Control_Avg_AUC [1]: 406.962
- VP-MCC_Avg_AUC ([2]; NPC library): 342.155
- Control-VP-MCC [2, 8]: 64.8071
- UISO_AUC (UISO cells (VN-MCC); [9]): 330.63
- HACAT_AUC (HACAT cells; [10]): 392.766
- MCC26_AUC (MCC26 cells (VN-MCC); NPC library; qHTS dose-response AUC, MCC26): 401.146
- MKL1_AUC (MKL-1 cells (VP-MCC); [11]): 329.916
- VN-MCC_Avg_AUC ([3]; NPC library): 374.766
- Control-VN-MCC [3, 12]: 32.1955
- MCC_Avg_AUC ([4]; mean AUC of six MCC cell lines): 358.46
- CRL7250_AUC (CRL-7250 cells; [13]): 401.378
- MKL2_AUC (MKL-2 cells (VP-MCC); [14]): 344.79
- WAGA_AUC (WAGA cells (VP-MCC); [15]): 351.758
- HEK293T_AUC (HEK293T cells; NPC library; qHTS dose-response AUC, HEK293T control): 380.139
- Control-MCC [5]: 48.5013

— article PMC11822212, “High-throughput screening identifies Aurora kinase B as a critical therapeutic target for Merkel cell carcinoma” (Nature Communications, 2025)
